As a reminder, the inhibition is how much of the control response was suppressed. High values mean a response far below the control, low ones a response near the control. As usually defined, the IC50 is the concentration at which inhibition is half-maximal.

“Also recorded” adds a separate entry of the source.

The test system of assay [1] is TPC1 cells. In words: Boyden chamber migration assay, TPC1. It counts as cell-based, Human. Particulars: 5 μM, 24 hours, P<0.05 versus DMSO. The procedure: Cells were grown in media containing 10% FBS. After 24 hours, the medium was aspirated, and media containing 1% FBS was added for 24 hours. The cells were trypsinized for 2 to 5 minutes, washed, and resuspended in media containing 1% FBS. The cell concentration was calculated by hemocytometer. Four hundred μl 1% FBS medium was added into 24-well plates, and a Boyden chamber (8 μm pore) was inserted into each well. Cells were added to each insert, and were allowed to attach in an incubator at 37° C. at 5% CO2 for 2 hours. The cells were then exposed to various concentrations of drugs or control diluent for 3 hours. The inserts were switched to a new well containing media containing 10% FBS, and the chamber was incubated for 12 or 24 hours depending on the migration rate of the cell line. The cells on and under the Boyden chamber membrane were fixed with 3.7% formaldehyde containing 0.05% crystal violet for 15 min after washing cells with PBS. The chambers were washed with distilled water. […] The Q-tips containing the scraped cells and the Boyden chamber containing the non-migrated cells were separately incubated in 80% methanol, shaken at 500 g for 30 minutes, and the extracted dye was measured at 570 nm. Migration was quantified as the ratio of the migrated cells over the total cells (non-migrated plus […]). […]

For assay [2], the target named is T1, SGK (Homo sapiens, UniProt O00141).
T1 sequence (O00141 1-431): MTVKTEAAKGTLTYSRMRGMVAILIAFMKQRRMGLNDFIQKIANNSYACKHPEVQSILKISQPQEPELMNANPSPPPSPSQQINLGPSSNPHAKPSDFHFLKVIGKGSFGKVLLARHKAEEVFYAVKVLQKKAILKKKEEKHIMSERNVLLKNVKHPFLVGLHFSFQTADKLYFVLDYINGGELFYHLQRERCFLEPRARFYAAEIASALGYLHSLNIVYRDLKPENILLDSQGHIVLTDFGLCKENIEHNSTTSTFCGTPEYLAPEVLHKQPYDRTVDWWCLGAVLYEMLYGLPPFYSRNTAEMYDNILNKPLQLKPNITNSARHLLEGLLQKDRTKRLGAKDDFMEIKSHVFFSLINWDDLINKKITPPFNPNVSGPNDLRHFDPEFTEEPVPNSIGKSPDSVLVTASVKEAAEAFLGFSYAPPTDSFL
In words: Kinase profiling panel: SGK. It is filed as biochemical. Particulars: 5 μM compound; for % activity vs. DMSO, SGK: average of triplicate. The procedure: (§1) To further probe the selectivity of the compounds 4 and 15, they were subjected for kinase profiling service for screening against a panel of other kinases selected based on the kinase tree at 5 μM concentration, at or above the IC50 for the two compounds versus PAK in both in vitro and cell-based assays. […] PAK1 was not available for testing using this system thus it was not possible to compare directly in this assay system.

The subject of assay [3] is PAK phosphorylation of Vimentin (Ser56). In words: Western blot, PAK phosphorylation of Vimentin (Ser56) in thyroid cancer cells. It is filed as cell-based, Human. Particulars: for PAK phosphorylation of vimentin (Western blot): 7.5 μM, 6 h, FTC133 and TPC1 cells (FIG. 3); for PAK phosphorylation of vimentin (Western blot) / Dose-dependency of PAK inhibition (Vimentin phosphorylation): BCPAP; for IC50: Homo sapiens, cell-based assays, read-out: IC50 versus PAK, cell-based; for Dose-dependency of PAK inhibition (Vimentin phosphorylation): dose-response, 6 hours, FTC133 and TPC1 cells (FIG. 4A). The procedure:
Protein isolation and Western blot were performed as previously described. Ringel et al., Cancer research 61:6105-6111 (2001). 25 μg of total cell lysates were loaded into 4-12% SDS-PAGE, electrophoresed, and transferred to nitrocellulose membranes for immunoblotting. Primary antibodies against Akt (#9272), phospho-Akt (Thr308) (#2965), p44/42 MAPK (Erk1/2) (#9107), phospho-p44/42 MAPK (Erk1/2) (Thr202/Tyr204) (#4377) and GAPDH (#2118) were obtained from Cell Signaling Technology (Danvers, Mass., USA). Antibody against Vimentin (V6630) and phospho-Ser55 Vimentin were from Sigma-Aldrich, Inc. (St. Louis, Mo.) and MBL Co. (Nagoya, Japan), respectively. Antibodies against total and phosphorylated S6 were from Cell Signaling Technology®.
The ability of the compounds with in vitro anti-PAK1 activity was assessed for activity […] in thyroid cancer cells. In addition, because the compounds are based on the structure of a PDK1 inhibitor, PDK1 inhibitory activity was also assessed. Inhibitory activity in cells was estimated using Western blot with primary antibodies directed against kinase-specific phosphorylation sites; serine 56 of vimentin for PAK and threonine 308 of Akt for PDK1. BCPAP, TPC1, and FTC133 thyroid cancer cells were utilized. BCPAP and TPC1 are derived from PTC and have BRAF V600E and RET/PTC1 rearrangements, respectively. FTC133 is derived from a follicular thyroid cancer with an inactivating mutation of PTEN. Similar to the kinase screening assay, cells were treated with the six compounds or OSU-03012 at 7.5 μM concentration or with DMSO vehicle alone. The results were not entirely consistent across the three cell lines presumably related to mutation status or other factors. OSU-03012 inhibited both PDK1 and PAK-mediated phosphorylation of targets as predicted.
The dose-dependency of compounds 4 and 15 was next assessed (FIG. 4). […] Due to the important role that ERK activation plays in thyroid cancer, and its signaling activation by thyroid oncogenes, the effects of the compounds on ERK phosphorylation was also assessed.
For orientation: In western blotting, separated proteins are transferred to a membrane and probed.

For assay [4], the target named is CHK1 (Homo sapiens, UniProt O14757). The assay is described as follows: Kinase profiling panel: CHK1. Particulars: 5 μM compound; average of triplicate. It is filed as biochemical. On the procedure: as §1
Chain of CHK1 (O14757 whole entry, species assumed): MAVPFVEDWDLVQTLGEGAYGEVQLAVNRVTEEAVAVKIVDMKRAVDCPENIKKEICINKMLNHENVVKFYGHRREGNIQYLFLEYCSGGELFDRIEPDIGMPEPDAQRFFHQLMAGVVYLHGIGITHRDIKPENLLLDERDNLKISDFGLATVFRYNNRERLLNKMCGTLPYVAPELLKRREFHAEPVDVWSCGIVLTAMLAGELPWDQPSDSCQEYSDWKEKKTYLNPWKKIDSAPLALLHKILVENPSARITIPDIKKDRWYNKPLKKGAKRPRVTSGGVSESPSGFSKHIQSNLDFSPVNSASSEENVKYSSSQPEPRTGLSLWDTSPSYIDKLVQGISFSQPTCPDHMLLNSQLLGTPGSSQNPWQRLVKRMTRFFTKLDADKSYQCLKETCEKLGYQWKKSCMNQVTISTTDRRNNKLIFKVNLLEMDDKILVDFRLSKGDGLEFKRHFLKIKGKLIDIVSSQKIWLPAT
Assay [5] concerns the target C-RAF (Homo sapiens, UniProt P04049). In words: Kinase profiling panel: C-RAF. It is filed as biochemical. Particulars: 5 μM compound; average of triplicate. The procedure: as §1
The test system of assay [6] is other PAK kinases. The assay is described as follows: Kinase profiling panel: other PAK kinases (summary statement). Particulars: 5 μM compound. It counts as biochemical. On the procedure: as §1
Assay [7] deals with PKCα (Homo sapiens, UniProt P17252). In words: Kinase profiling panel: PKCα. It counts as biochemical. Particulars: 5 μM compound; average of triplicate. The procedure: as §1

Chain of C-RAF (P04049 whole entry, species assumed): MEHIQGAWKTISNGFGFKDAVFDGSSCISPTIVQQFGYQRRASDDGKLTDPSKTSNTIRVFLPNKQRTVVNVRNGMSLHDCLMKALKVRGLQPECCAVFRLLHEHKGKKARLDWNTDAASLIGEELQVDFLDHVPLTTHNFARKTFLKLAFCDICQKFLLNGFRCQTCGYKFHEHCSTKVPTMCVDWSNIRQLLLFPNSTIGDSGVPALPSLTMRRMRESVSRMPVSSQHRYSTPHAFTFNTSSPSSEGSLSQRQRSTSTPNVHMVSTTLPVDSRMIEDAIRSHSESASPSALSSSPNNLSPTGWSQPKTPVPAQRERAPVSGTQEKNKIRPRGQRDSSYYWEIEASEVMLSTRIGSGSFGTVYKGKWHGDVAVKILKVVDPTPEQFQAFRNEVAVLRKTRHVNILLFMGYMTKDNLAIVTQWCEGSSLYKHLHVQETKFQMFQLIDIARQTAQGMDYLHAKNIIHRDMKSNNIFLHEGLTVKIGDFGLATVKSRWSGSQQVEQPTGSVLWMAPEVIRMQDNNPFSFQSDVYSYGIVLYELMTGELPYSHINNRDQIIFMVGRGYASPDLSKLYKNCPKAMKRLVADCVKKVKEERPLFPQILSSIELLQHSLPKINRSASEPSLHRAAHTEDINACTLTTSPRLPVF

`NCCC(=O)Nc1ccc(-n2nc(C(F)(F)F)cc2-c2ccc3ccc4ccccc4c3c2)cc1` [Compound 4, 3-amino-N-(4-(5-(phenanthren-3-yl)-3-(trifluoromethyl)-1H-pyrazol-1-yl)phenyl)-propanamide]: the “Migration of TPC1 cells” value in assay [1] is “decreased cell motility; also recorded: inhibited migration”. In assay [2], the inhibition at 5 µM is over 50% and the “% activity vs. DMSO, SGK” value came to 27%. In addition, in assay [3], the “PAK phosphorylation of vimentin (Western blot)” value is recorded as “inhibited PAK”, the half-inhibitory concentration (IC50) was at most 5 µM and the “Dose-dependency of PAK inhibition (Vimentin phosphorylation)” value is given as “inhibited PAK1 in a dose dependent manner”. Besides, the “% activity vs. DMSO, CHK1” value in assay [4] is 82%. Also, the “% activity vs. DMSO, C-RAF” value in assay [5] was found to be 104%. Besides, the “Activity versus other PAK kinases” value in assay [6] is “did not have activity versus other PAK kinases”. Moreover, the “% activity vs. DMSO, PKCα” value in assay [7] is 92%.

On to `CC(C)NC(=O)c1cc(-c2ccc3ccc4ccccc4c3c2)n(-c2ccc(NC(=O)CN)cc2)n1` [Compound 15, 1-(4-(2-Aminoacetamido)phenyl)-N-isopropyl-5-(phenanthren-3-yl)-1H-pyrazole-3-carboxamide], for which the “Migration of TPC1 cells” value in assay [1] is given as “decreased cell motility; also recorded: inhibited migration”. For the same compound, the “% activity vs. DMSO, SGK” value in assay [2] amounted to 64%. Besides, in assay [3], the “PAK phosphorylation of vimentin (Western blot)” value is listed as “inhibited PAK”, the half-maximal inhibitory concentration (IC50) is at most 5 µM and the “Dose-dependency of PAK inhibition (Vimentin phosphorylation)” value is “inhibited PAK1 in a dose dependent manner”. In assay [4], the “% activity vs. DMSO, CHK1” value was 89%. Further, the “% activity vs. DMSO, C-RAF” value in assay [5] was 108%. Moreover, the “Activity versus other PAK kinases” value in assay [6] was “did not have activity versus other PAK kinases”. Further, the “% activity vs. DMSO, PKCα” value in assay [7] is recorded as 92%.

The values above are taken from US9156790B2, “Anticancer P21-activated kinase inhibitors” (Ohio State Innovation Foundation, priority 2013, dated 2015).
